Starred links: 1 amine or outer side, 2 acyl side, 3 side chain; linkers in the order of their positions; H or OH if unused. Non-standard residues stand in square brackets, D forms with d. No end group written: not given here. γGlu = O=C(O)[C@H](CCC(=O)[*:2])N[*:1]; Abu = CC[C@H](N)C(=O)O

Test [1] is described as follows: Fat-like richness and smoothness imparted to low-calorie mayonnaise, quantitative sensory evaluation test. The class given is in vivo, human. Conditions: for Fat-like richness / Smoothness: control 0, strong 3, very strong 5 points. Here is the method:
In the same manner as that in Example 1 except that commercially-available low-calorie mayonnaise (having a fat content reduced by 50% compared with a normal product) was used instead of low-fat milk, each peptide was measured for its fat-like richness-imparting intensity.
In the same manner as that in Example 2, each sample was measured for its intensity of imparting fat-like richness.

In a further test the target is T1, human calcium receptor (Homo sapiens, UniProt P41180).
T1 construct: expressed in transfected cells; host or cells: Xenopus laevis oocytes injected with cRNA; the gene was PCR-cloned from human kidney cDNA (Clontech) into pBR322
T1 sequence (P41180 20-1078): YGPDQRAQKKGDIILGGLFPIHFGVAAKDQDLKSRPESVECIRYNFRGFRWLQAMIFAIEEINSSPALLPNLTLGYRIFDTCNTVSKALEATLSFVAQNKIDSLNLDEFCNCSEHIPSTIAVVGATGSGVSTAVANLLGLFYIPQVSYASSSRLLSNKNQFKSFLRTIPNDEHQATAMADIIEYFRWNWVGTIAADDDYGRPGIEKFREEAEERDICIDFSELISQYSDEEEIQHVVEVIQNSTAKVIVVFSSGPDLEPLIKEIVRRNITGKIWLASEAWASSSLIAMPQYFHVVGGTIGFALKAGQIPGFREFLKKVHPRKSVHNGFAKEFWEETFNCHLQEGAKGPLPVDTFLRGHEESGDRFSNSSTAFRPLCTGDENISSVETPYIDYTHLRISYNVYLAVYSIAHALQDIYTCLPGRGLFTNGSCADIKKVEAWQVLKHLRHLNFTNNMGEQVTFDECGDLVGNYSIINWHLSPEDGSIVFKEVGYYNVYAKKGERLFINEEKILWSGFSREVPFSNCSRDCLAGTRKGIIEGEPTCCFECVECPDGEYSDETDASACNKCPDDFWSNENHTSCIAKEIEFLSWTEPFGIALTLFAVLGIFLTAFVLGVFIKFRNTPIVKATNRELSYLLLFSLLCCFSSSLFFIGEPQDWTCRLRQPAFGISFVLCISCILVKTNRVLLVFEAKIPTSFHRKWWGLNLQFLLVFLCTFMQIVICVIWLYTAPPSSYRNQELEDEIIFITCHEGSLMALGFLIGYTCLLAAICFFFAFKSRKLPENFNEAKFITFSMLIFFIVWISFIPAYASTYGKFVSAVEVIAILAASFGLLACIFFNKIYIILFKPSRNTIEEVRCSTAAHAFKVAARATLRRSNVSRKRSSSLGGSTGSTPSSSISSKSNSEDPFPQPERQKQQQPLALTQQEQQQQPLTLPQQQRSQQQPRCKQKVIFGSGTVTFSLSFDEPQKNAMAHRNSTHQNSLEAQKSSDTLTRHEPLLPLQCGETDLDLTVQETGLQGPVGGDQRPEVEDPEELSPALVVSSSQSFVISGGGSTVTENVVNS
As to the kind of experiment: Calcium receptor-activating effect: Ca ion concentration-dependent Cl ionic current in Xenopus laevis oocyte expression system. It is filed as cell-based. Conditions: for Activity (lowest concentration at which current was detected): peptide added at 1,000 to 0.1 μM to potential-clamped oocytes, Table 1. Here is the method:
For evaluation of the calcium receptor-activating effect, a Ca ion concentration-dependent Cl ionic current measuring method using a Xenopus laevis oocyte expression system was used. If each activator is added to Xenopus laevis oocytes expressing the calcium receptor, intracellular Ca ions increase. Then, the Ca ion concentration-dependent Cl channel opens, and the intracellular current value changes as an ionic current. By measuring the change in the intracellular current value, whether the calcium receptor-activating effect is present or not can be determined.
Specifically, the abdomen of Xenopus laevis was opened, and an egg batch was taken out and then treated with a 1% collagenase solution at 20° C. for 2 hours to obtain individual oocytes. Into the oocytes, 50 nl of 1 μg/μl receptor cRNA or 50 nl of sterilized water per oocyte were injected by using a micro glass capillary, and the oocytes were cultured at 18° C. for 2 to 3 days. For the culture, a solution obtained by adding 2 mM pyruvic acid, 10 U/ml penicillin, and 10 μg/ml streptomycin to the solution in Reference Example 2 was used. After the culture, a test solution was added to the oocytes injected with cRNA or sterilized water. Electrophysiological measurement was performed by using an amplifier Geneclamp 500 (manufactured by Axon) and recording software AxoScope 9.0 (manufactured by Axon). The oocytes were membrane potential-clamped at −70 mV by the double electrode potential clamp method, and the intracellular current via the Ca ion concentration-dependent Cl ion was measured. The maximum value of the intracellular current was defined as the response current value.
The calcium receptor-activating effect of L-amino acids was evaluated by using the method described in Reference Example 6. That is, oocytes injected with cRNA of the calcium receptor or sterilized water were prepared, and membrane potential-clamped at −70 mV by the double electrode potential clamp method. To the potential-clamped oocytes, alanine (10 mM), arginine (10 mM), asparagine (10 mM), aspartic acid (10 mM), cysteine (10 mM), glutamine (10 mM), glutamic acid (10 mM), glycine (10 mM), histidine (10 mM), isoleucine (10 mM), leucine (10 mM), lysine (10 mM), methionine (10 mM), phenylalanine (10 mM), proline (10 mM), serine (10 mM), threonine (10 mM), tryptophan (10 mM), tyrosine (10 mM), valine (10 mM), ornithine (10 mM), taurine (10 mM), or hydroxyproline (10 mM) was added, and Ca ion concentration-dependent Cl response current was measured. […] 25, 2000, 97(9): 4814-9.
The calcium receptor-activating effect of D-cysteine was evaluated by using the method described in Reference Example 6. That is, oocytes injected with cRNA of the calcium receptor or sterilized water were prepared, and membrane potential-clamped at −70 mV by the double electrode potential clamp method. To the potential-clamped oocytes, D-cysteine (10 mM), L-cysteine (10 mM), D-tryptophan (10 mM), or L-tryptophan (10 mM) was added, and Ca ion concentration-dependent Cl response current was measured.
The calcium receptor-activating effect of a peptide was evaluated by using the method described in Reference Example 6. That is, oocytes injected with cRNA of the calcium receptor or sterilized water were prepared, and membrane potential-clamped at −70 mV by the double electrode potential clamp method.
The calcium receptor-activating effects of peptides were evaluated in the same manner as that of Reference Example 10. Each of the peptides shown in Table 1 was added to potential-clamped oocytes at 1,000 μM, 300 μM, 100 μM, 30 μM, 10 μM, 3 μM, 1 μM, 0.3 μM, and 0.1 μM, and Ca ion concentration-dependent Cl response current was measured.

A short description of test [2]: Kokumi-imparting activity intensity, quantitative sensory evaluation test. Also noted: key: *: Unmeasurable: kokumi-imparting activity is too strong to measure by sensory evaluation. It is filed as in vivo, human.
Method: The quantitative sensory evaluation test was performed as follows. […] It should be noted that a sample, which became acidic after the sample had been dissolved, was adjusted with NaOH to pH 6.8 to 7.2 before use. […] The test was performed with n=3 based on the following sensory evaluation scores: control (0 point) and glutathione addition (3 points).
The quantitative sensory evaluation test was performed as follows. […] It should be noted that a sample, which became acidic after the sample had been dissolved, was adjusted with NaOH to pH 6.8 to 7.2 before use. The test was performed with n=5 based on the following sensory evaluation scores: control (0 point) and glutathione addition (3 points).
The quantitative sensory evaluation test was performed as follows. […] It should be noted that a sample, which became acidic after the sample had been dissolved, was adjusted with NaOH to pH 6.8 to 7.2 before use. The test was performed with n=12 based on the following sensory evaluation scores: control (0 point) and glutathione addition (3 points).
The mark [3] stands for this setting: 0.01 g/dl in low-calorie mayonnaise (fat reduced by 50%), Table 7.
[4] abbreviates: 0.01 g/dl in low-calorie mayonnaise, Table 7.
The mark [5] stands for this setting: 0.1 g/dl, n=5, control 0, glutathione 3 points, Table 4.
[6] abbreviates: 0.1 g/dl, n=12, control 0, glutathione 3 points, Table 5.
Where [7] appears, read: 0.0001 g/dl in low-calorie mayonnaise, Table 7.
Setting [8] is: 0.001 g/dl in low-calorie mayonnaise, Table 7.
[9] abbreviates: 0.001 g/dl in low-calorie mayonnaise, Table 9.
Where [10] appears, read: 0.01 g/dl, n=5, control 0, glutathione 3 points, Table 4.
Setting [11] is: 0.01 g/dl, n=12, control 0, glutathione 3 points, Table 5.

In test [1] (setting [3]), `N[C@@H](CCC(=O)N[C@@H](CS)C(=O)NCC(=O)O)C(=O)O` [γ-Glu-Cys-Gly, reference compound] showed a Fat-like richness of 3.5 points. For the same compound, the Taste profile result in test [1] (setting [4]) is “Fat-like richness with sweet”; in test [2] (0.1 g/dl, n=3, Table 3), “Thickness, growth, and continuity”. Besides, the Smoothness in test [1] (setting [4]) is reported as 3.0 points. The “calcium receptor-activating effect (Cl response current)” value at human calcium receptor (peptide 50 μM, FIG. 4) is recorded as “definite calcium receptor-activating effect”. In addition, the “Kokumi intensity, Aftertaste” value in test [2] (0.1 g/dl, n=3, control 0, glutathione 3 points, Table 3) is given as 3.0 points; in test [2] (setting [5]), 3.0 points; in test [2] (setting [6]) it was 3.0 points. The “Kokumi intensity, Initial and middle taste” value was found to be 3.0 points in test [2] (setting [5]); 3.0 points in test [2] (setting [6]); 3.0 points in test [2] (0.1 g/dl, sodium glutamate, inosine monophosphate, sodium chloride solution, n=3, control 0, glutathione 3 points, Table 3).
Consider [γGlu]-Val-Gly, for which the Taste profile entry in test [1] (setting [7]) is given as “Taste is enhanced in middle”; in test [1] (setting [8]), “Taste is enhanced in middle”; in test [1] (setting [9]) it was “Taste is enhanced in middle”; in test [2] (0.1 g/dl, n=5, Table 4), “*”. Besides, the Fat-like richness was found to be 3.0 points in test [1] (setting [7]), 4.8 points in test [1] (setting [8]) and 4.8 points in test [1] (setting [9]). In addition, the results for the Smoothness in test [1] (setting [7]), in test [1] (setting [8]) and in test [1] (setting [9]) were 3.0 points, 4.5 points and 4.5 points, respectively. In addition, the “Activity (lowest concentration at which current was detected)” value on human calcium receptor came out at 0.1 µM. Further, the “Kokumi intensity, Aftertaste” value is 3.0 points in test [2] (setting [10]); 3.0 points in test [2] (setting [11]); “*” in test [2] (0.1 g/dl, n=5, Table 4). The “Kokumi intensity, Initial and middle taste” value in test [2] (setting [10]) is 3.0 points; in test [2] (setting [11]), 3.0 points; in test [2] (0.1 g/dl, n=5, Table 4), “*”.
Regarding [γGlu]-[Abu]-Gly, in test [1] (setting [8]), the Taste profile result is “Fat-like richness with sweet”, the Fat-like richness is given as 3.2 points and the Smoothness was 3.0 points. Besides, the Fat-like richness in test [1] (setting [3]) came out at 4.7 points. In test [1] (setting [4]), the Taste profile result is “Fat-like richness with sweet” and the Smoothness was 4.3 points. Moreover, at human calcium receptor, the “Activity (lowest concentration at which current was detected)” value worked out at 3 µM. Also, in test [2] (setting [11]), the “Kokumi intensity, Aftertaste” value came out at 2.0 points; the “Kokumi intensity, Initial and middle taste” value is 3.0 points.

The values above are taken from patent US8399417B2, “Food” (Ajinomoto Co., Inc., priority 2007, dated 2013).
